Results published in paper PMC8012336, “An automated and high-throughput-screening compatible pluripotent stem cell-based test platform for developmental and reproductive toxicity assessment of small molecule compounds” (Cell Biology and Toxicology, 2020).
Values after ≈ are worked out from the molar mass of the structure shown.

What was measured:
NIH/3T3 = assay: Automated CellTiter-Glo luminescent cell viability (cytotoxicity) assay, 5 d
Description: (§1) The CellTiter-Glo® luminescent cell viability assay (Promega, Cat. No. G7573) was automated in 96-well format on the lab automation platform Fluent® (Tecan, Männedorf, Switzerland). The procedure allowed the testing of six compounds in mESC-D3 and NIH/3T3 cells in parallel. On the first day, PBS was dispensed into the peripheral wells of the assay plates (200 μl/well) using the Multiple Channel Arm (MCA). Mouse ES-D3 and NIH/3T3 cells were plated (50 μl/well, 1 × 10^4 cells/ml)) using the Flexible Channel Arm (FCA) and transported into the Cytomat™ 10 (Thermo Fisher Scientific) for incubation using the Robotic Gripper Arm (RGA). A 7-point dilution series of the test compounds and control solutions were prepared in PBS or DMSO (Carl Roth, Cat. No. HN47.1) under the laminar flow, transferred to a 96-well 0.5-ml Masterblock plate (Greiner bio-one, Cat. No. 786261) and placed on the worktable. On the Fluent the compounds were transferred to a 96-well 2-ml Masterblock plate (Greiner bio-one, Cat. No. 780271) and further diluted in growth media using the FCA. Two hours after cell plating compounds and controls were transferred to the assay plate with the FCA (150 μl/well) and transported back in the Cytomat 10. On day three of the assay, the media was exchanged using the MCA: old media was aspirated and dispensed into a 96-deep-well plate (“waste”), freshly prepared compound, and control solution was dispensed into the assay plate. After two more days of incubation, the cell viability was determined using the CellTiter-Glo assay. The assay plates were transported from the Cytomat 10 to the Carousel (Tecan) to adapt to room temperature. After 25 min the cell supernatant was removed partially (80 μl/well) and CellTiter-Glo reagent was dispensed (50 μl/well). The assay plate was placed on a shaker for 1 min and afterward incubated 25 min in the Carousel before the Luminescence signal was detected on the Infinite M1000 Pro plate reader (Tecan).
(§2) Toxicity data from the MTT and CellTiter-Glo Assay was normalized against the vehicle control (100% viability) and plotted against the logarithmic compound concentration.

mESC-D3 = assay: as above
Description: as §1, §2

[1] = as above; settings: mouse
Description: as §1, §2

Compound | Cytotoxicity assay CTG, 5 d IC50 NIH/3T3 (NIH/3T3) | Cytotoxicity assay CTG, 5 d IC50 mESC-D3 (mESC-D3) | IC50 at 5 d ([1]; NIH/3T3 cells) [µg/mL] | IC50 at 5 d ([1]; mESC-D3 cells (mouse embryonic stem cells)) [µg/mL]
NC(=O)NO [Hydroxyurea, hydroxyurea] | 4.01 (3.97; 4.06) μg/ml | 2.28 (1.69; 2.87) μg/ml |  | 
O=C1NS(=O)(=O)c2ccccc21 [Saccharin, saccharin] |  |  | > 1000 | 393 (≈ 2150 µM)
